Structures are written as SMILES. Converted amounts (≈) assume the structure as drawn. “And” between values parts separate entries of the source, which are not always exact repeats. Equal entries are not always repeated.

Test systems include Serratia rubidaea X01; Lactococcus lactis; Escherichia coli AS1.349; Pseudomonas aeruginosa; Candida albicans; Bacillus cereus; Spiroplasma citri R8A2; Acinetobacter baumannii; Micrococcus luteus; Escherichia coli D21; Staphylococcus simulans.
Assay in all cases: ≥ marks a high value that may be exact or a test limit, other limits are often not marked, values filed in µg/mL are converted to µM
Assay [1] relates to Escherichia coli ATCC 25922.
For assay [2], the system named is Psychrobacter faecalis X29.
Assay [3] concerns Klebsiella pneumoniae 08040724.
Assay [4] has as its system Rhodococcus rhodochrous X15.
For assay [5], the system named is Pseudomonas aeruginosa CGMCC 1.50.
The test system of assay [6] is Bacillus licheniformis X39.
Assay [7] has as its system Pseudomonas aeruginosa 11053.
The subject of assay [8] is Staphylococcus aureus ATCC 25923.
The test system of assay [9] is Enterococcus faecalis 981.
Assay [10] concerns Candida albicans ATCC 10231.
In assay [11] the test system is Staphylococcus carnosus KHS.
Assay [12] concerns Proteus mirabilis ATCC 25933.
Assay [13] deals with Pseudomonas aeruginosa ATCC 9027.
The test system of assay [14] is Candida albicans ATCC 36232.
Assay [15] has as its system Klebsiella pneumoniae ATCC 10031.
Assay [16] relates to Staphylococcus aureus KCTC 3881.
The subject of assay [17] is Escherichia coli KCTC 2433.
Assay [18] has as its system Staphylococcus aureus AS1.72.
Assay [19] concerns Bacillus subtilis ATCC 6633.
The test system of assay [20] is Micrococcus luteus ATCC 4698.
Assay [21] relates to Shigella dysenteriae ATCC 9752.
Assay [22] concerns Staphylococcus epidermidis ATCC 12228.
Assay [23] has as its system Spiroplasma floricola BNR 1.
Assay [24] deals with Acholeplasma laidlawii A-EF22.
Assay [25] concerns Spiroplasma melliferum BC3.
The test system of assay [26] is Mycoplasma mycoides ssp. mycoides SC KH3J.
In assay [27] the test system is Acinetobacter baumannii ATCC 19606.
Assay [28] concerns Pseudomonas aeruginosa ATCC 27853.
In assay [29] the test system is Staphylococcus epidermidis LT1324.
Assay [30] deals with Staphylococcus aureus II ATCC 6538P.
For assay [31], the system named is Pseudomonas aeruginosa H1001.
In assay [32] the test system is Bacillus subtilis KCCM 11495.
Assay [33] relates to Escherichia coli KCCM 11569.

In general, MIC refers to the lowest concentration found to suppress growth. The low end stands for inhibition by little substance, the high end for a need for much substance. In the case of `CC[C@H](C)[C@H](NC(=O)[C@H](CCCCN)NC(=O)[C@@H]1CCCN1C(=O)[C@H](CC(C)C)NC(=O)[C@H](Cc1ccccc1)NC(=O)[C@H](CC(N)=O)NC(=O)[C@H](C)NC(=O)[C@H](C)NC(=O)[C@H](CC(C)C)NC(=O)CNC(=O)[C@H](C)NC(=O)[C@H](CC(C)C)NC(=O)[C@H](CCSC)NC(=O)[C@@H]1CCCN1C(=O)[C@H](CC(C)C)NC(=O)[C@@H](N)Cc1ccccc1)C(=O)N[C@H](C(=O)N[C@H]1CSSC[C@@H](C(=O)O)NC(=O)[C@H](CCCCN)NC(=O)[C@H](CCCCN)NC(=O)[C@H]([C@@H](C)O)NC(=O)[C@H]([C@@H](C)CC)NC(=O)[C@H](CCCCN)NC1=O)C(C)C` [FLPMLAGLAANFLPKIVCKITKKC], the MIC in the assay on Serratia rubidaea X01 was 4.6 µM (≈ 12 µg/mL); in [1], 75 µM (≈ 196 µg/mL); in assay [2], 9 µM (≈ 23.6 µg/mL); in assay [3], not below 150 µM; in [4], 0.6 µM (≈ 1.57 µg/mL); in [5] it was not below 75 µM. For the same compound, the MIC was 2.3 µM (≈ 6.02 µg/mL) in [6]; not below 75 µM in assay [7]; 9 µM (≈ 23.6 µg/mL) in assay [8]; 9 µM (≈ 23.6 µg/mL) in [9]; 37.5 µM (≈ 98.2 µg/mL) in [10]; 1.2 µM (≈ 3.14 µg/mL) in [11].

Consider `CC(C)C[C@H](NC(=O)CN)C(=O)N[C@@H](Cc1ccccc1)C(=O)N[C@@H](CC(=O)O)C(=O)N[C@H](C(=O)N[C@H](C(=O)N[C@@H](CCCCN)C(=O)NCC(=O)N[C@H](C(=O)N[C@@H](CC(C)C)C(=O)N[C@@H](CCCCN)C(=O)NCC(=O)N[C@H](C(=O)NCC(=O)N[C@@H](CCCCN)C(=O)N[C@@H](CC(N)=O)C(=O)N[C@H](C(=O)N[C@@H](C)C(=O)NCC(=O)N[C@@H](CO)C(=O)N[C@@H](CC(C)C)C(=O)N[C@@H](CC(C)C)C(=O)N[C@@H](CCC(=O)O)C(=O)N[C@@H](CCC(N)=O)C(=O)N[C@@H](CC(C)C)C(=O)N[C@@H](CCCCN)C(=O)N[C@H]1CSSC[C@@H](C(=O)O)NC(=O)CNC(=O)CNC(=O)[C@H](CO)NC(=O)[C@H](CC(C)C)NC(=O)[C@H](CCCCN)NC1=O)C(C)C)C(C)C)C(C)C)C(C)C)C(C)C` [GLFDVVKGVLKGVGKNVAGSLLEQLKCKLSGGC], for which the minimal inhibitory concentration (MIC) in the assay on Lactococcus lactis is not below 37.5 µM; in the assay on Escherichia coli AS1.349, not below 100 µM; against Pseudomonas aeruginosa it was more than 100 µM; in assay [12], 30.1 µM (≈ 99.9 µg/mL); in assay [13], more than 30.1 µM; in the assay on Candida albicans, 50 µM (≈ 166 µg/mL). The minimum inhibitory concentration (MIC) in assay [14] was 30.1 µM (≈ 99.9 µg/mL); in [15] it was 4.52 µM (≈ 15 µg/mL); in assay [16], 9.04 µM (≈ 30 µg/mL); in the assay on Bacillus cereus, not below 37.5 µM; in [17] it was 4.52 µM (≈ 15 µg/mL); in assay [18] it was not below 37.5 µM. In addition, the minimal inhibitory concentration (MIC) is 15.1 µM (≈ 50 µg/mL) in assay [19], 1.88 µM (≈ 6.25 µg/mL) in assay [20], 18.1 µM (≈ 60 µg/mL) in assay [21] and 18.1 µM (≈ 60 µg/mL) in assay [22].

Turning to `CC(C)C[C@H](NC(=O)[C@H](CCCCN)NC(=O)[C@H](CC(C)C)NC(=O)[C@H](CC(C)C)NC(=O)[C@H](CCCCN)NC(=O)[C@H](CC(C)C)NC(=O)[C@H](CC(C)C)NC(=O)[C@H](CCCCN)NC(=O)[C@H](CC(C)C)NC(=O)[C@H](CC(C)C)NC(=O)[C@H](CCCCN)NC(=O)[C@H](CC(C)C)NC(=O)[C@H](CC(C)C)NC(=O)[C@@H](N)CCCCN)C(=O)N[C@@H](Cc1c[nH]c2ccccc12)C(=O)N[C@@H](CCCCN)C(=O)O` [KLLKLLKLLKLLKLWK], the MIC in assay [23] was 6.25 µM (≈ 12.4 µg/mL); in [24], 0.78 µM (≈ 1.55 µg/mL); in assay [25], 6.25 µM (≈ 12.4 µg/mL); in assay [26] it was 12.5 µM (≈ 24.9 µg/mL); with Spiroplasma citri R8A2, 6.25 µM (≈ 12.4 µg/mL).

`CC(C)C[C@H](NC(=O)[C@H](CC(C)C)NC(=O)[C@H](CCCCN)NC(=O)[C@H](CC(C)C)NC(=O)[C@H](CC(C)C)NC(=O)[C@H](CCCCN)NC(=O)[C@H](CCCCN)NC(=O)[C@H](CC(C)C)NC(=O)[C@H](CC(C)C)NC(=O)[C@H](CCCCN)NC(=O)[C@H](CCCCN)NC(=O)[C@H](CC(C)C)NC(=O)[C@H](CC(C)C)NC(=O)[C@H](CCCCN)NC(=O)[C@@H](N)CC(C)C)C(N)=O` [LKLLKKLLKKLLKLL]: the MIC in the assay on Acinetobacter baumannii is 6.2 µM (≈ 11.2 µg/mL); in [27] it was 1 µM (≈ 1.8 µg/mL); in assay [28], 24.9 µM and 25 µM; in [1] it was 13 µM (≈ 23.5 µg/mL); in [29], 4 µM (≈ 7.22 µg/mL); against Micrococcus luteus, 2 µM (≈ 3.61 µg/mL). Also, the minimum inhibitory concentration (MIC) in [30] is 3 µM (≈ 5.41 µg/mL); in the assay with Escherichia coli D21 it was 13 µM (≈ 23.5 µg/mL); against Staphylococcus simulans it was 2 µM (≈ 3.61 µg/mL).

In assay [31], `CC[C@H](C)[C@H](NC(=O)[C@H](CCCCN)NC(=O)[C@H](Cc1c[nH]c2ccccc12)NC(=O)[C@H](CCCN=C(N)N)NC(=O)[C@@H](N)CCCN=C(N)N)C(=O)N[C@H](C(=O)N[C@H](C(=O)N[C@H](C(=O)N[C@@H](CCCN=C(N)N)C(=O)N[C@@H](Cc1c[nH]c2ccccc12)C(=O)N[C@@H](CCCCN)C(=O)N[C@@H](CCCCN)C(N)=O)[C@@H](C)CC)C(C)C)C(C)C` [RRWKIVVIRWKK] gave an MIC of 1.2 µM (≈ 2 µg/mL). That is a single-digit micromolar value.

In the case of `CC(C)C[C@H](NC(=O)CNC(=O)[C@H](Cc1cnc[nH]1)NC(=O)[C@H](Cc1cnc[nH]1)NC(=O)[C@H](CC(C)C)NC(=O)[C@H](CC(C)C)NC(=O)[C@H](C)NC(=O)[C@H](CC(N)=O)NC(=O)[C@H](CC(C)C)NC(=O)[C@@H](N)Cc1c[nH]c2ccccc12)C(=O)N[C@@H](CC(N)=O)C(=O)N[C@@H](CS)C(N)=O` [WLNALLHHGLNC], the minimal inhibitory concentration (MIC) in assay [32] and in assay [33] was not below 46 µM in each case.

Source of the values: DBAASP.
